Where only a bound is given, the exact number is not on record here.

The target of one assay is T1, GHS-R (Homo sapiens, UniProt Q92847).
T1 construct: expressed in transfected cells; host or cells: COS-7 cells
T1 sequence (Q92847 whole entry, species assumed): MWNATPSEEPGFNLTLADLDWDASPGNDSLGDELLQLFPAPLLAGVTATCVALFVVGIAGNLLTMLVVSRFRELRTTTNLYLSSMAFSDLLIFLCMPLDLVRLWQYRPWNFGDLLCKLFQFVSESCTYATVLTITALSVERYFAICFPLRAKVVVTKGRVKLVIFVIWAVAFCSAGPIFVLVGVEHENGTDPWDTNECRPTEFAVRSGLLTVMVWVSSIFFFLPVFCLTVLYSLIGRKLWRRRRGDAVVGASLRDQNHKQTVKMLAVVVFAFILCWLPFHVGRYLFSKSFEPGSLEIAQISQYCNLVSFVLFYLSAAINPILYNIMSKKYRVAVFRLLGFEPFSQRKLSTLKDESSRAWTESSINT
As to the kind of experiment: GHS-R competition binding assay (Ki of GHS-R antagonizing compounds). Summed up: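 COS-7 cells expressing GHS-R (1×10^5 cells/well) competed against 25 pM ^125I-ghrelin for 3 hours at 4° C in 50 mM HEPES pH 7.4 with 1 mM CaCl2, 5 mM MgCl2, 0.1% BSA, bacitracin. Nonspecific binding with […]; bound radioactivity counted after washing and lysis. Ki=IC50/(1+L/Kd).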
As to `CCN(CC)CCS(=O)(=O)N[C@H](CCc1ccccc1)C(=O)c1ccc(-c2ccccc2COC(=O)NC)cc1` [Compound 215, (R)-(4′-(2-(2-(diethylamino)ethylsulfonamido)-4-phenylbutanoyl)biphenyl-2-yl)methyl methylcarbamate], the Ki was greater than 1000 nM.
Same read-out and setting: as for `CCN(CC)CCCS(=O)(=O)N[C@H](COCc1ccccc1)C(=O)NCc1ccc(-c2ccccc2CNC(C)=O)cc1` [Compound 216, (R)-N-[2′-(Acetylamino-methyl)-biphenyl-4-ylmethyl]-3-benzyloxy-2-(3-diethylamino-propane-1-sulfonylamino)-propionamide], the figure is greater than 1000 nM; as for `CCN(CC)CCCS(=O)(=O)N[C@H](COCc1ccccc1)C(=O)NCc1ccc(-c2ccccc2CCNC(=O)NC)cc1` [Compound 217, (R)-3-Benzyloxy-2-(3-diethylamino-propane-1-sulfonylamino)-N-{2′-[2-(3-methyl-ureido)-ethyl]-biphenyl-4-ylmethyl}-propionamide], 100 to 1000 nM.
In the case of `CCN(CC)CCS(=O)(=O)N[C@H](CCc1ccccc1)C(=O)c1ccc(-c2ccccc2C(N)=O)cc1` [Compound 218, (R)-4′-(2-(2-(diethylamino)ethylsulfonamido)-4-phenylbutanoyl)biphenyl-2-carboxamide], the Ki was greater than 1000 nM.
`CCN(CC)CCCS(=O)(=O)N[C@H](COCc1ccccc1)C(=O)c1ccc(-c2ccccc2COC(=O)NC)cc1` [Compound 219, (R)-Methyl-carbamic acid 4′-[(R)-3-benzyloxy-2-(3-diethylamino-propane-1-sulfonylamino)-propionyl]-biphenyl-2-ylmethyl ester] gave a Ki of 100 to 1000 nM.
Still for that read-out and setting: as for `CS(=O)(=O)N1CC2(CCN(C(=O)[C@@H](CCCc3ccccc3)NS(=O)(=O)CCCN=[N+]=[N-])CC2)c2ccccc21` [Compound 220, (R)-3-azido-N-(1-(1-(methylsulfonyl)spiro[indoline-3,4′-piperidine]-1′-yl)-1-oxo-5-phenylpentan-2-yl)propane-1-sulfonamide], the figure is 100 to 1000 nM; as for “(R)-N-(3-(benzyloxy)-1-(1-(methylsulfonyl)spiro[indoline-3,4′-piperidine]-1′-yl)-1-oxopropan-2-yl)-3-isosulfonylazolidine [Compound 151]”, 100 to 1000 nM.

In another assay the test system is mice. Put plainly: fast refeed (fast-refeeding) assay in mice. It is filed as in vivo. Here is the method:
In vivo assays. Exemplary in vivo assays include the fast-refeeding assay described in Example 1 and as follows.
Food is removed at 6 pm for an overnight (˜16 hour) fast. Beginning at 10 am on the next morning, mice are administered with either vehicle (e.g., saline+acetic acid, pH=5) or the compound of interest. Mice are then returned to their home cages and pre-weighed food (approximately 90 grams) is immediately returned to the food hoppers in each cage. The weight of the food remaining in the food hoppers is measured at 30 minutes, 1 hour, 2 hours, and 4 hours post compound/vehicle administration. Final body weights are then recorded for the mice.
Regarding “substance P: substance P; found to modulate GHS-R activity and to alter feeding activity of mice”, the “feeding activity of mice in the fast refeed assay” value was “alters feeding activity”.
